This assay concerns CEM cells HIV-1 protection, formazan growth assay. The assay is described as follows: NCI AIDS Antiviral Assay. Conditions: for IC50: measured here: growth of uninfected CEM cells. In outline: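 Human CEM cells, uninfected and HIV-1-infected, received five drug concentrations, and growth was read by soluble formazan assay. Compounds giving at least 50% protection were retested; reproducible 100% protection defined confirmed active.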

Calls of active or inactive are those of the source.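 The calls were made as follows: active = compounds giving half or more protection of infected cells from virus-caused growth loss, again on retest; inactive = the rest.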 A value given as a limit tells only on which side of the number the result lay.

Turning to `O=C1CSC(c2ccccc2O)N1c1ccc(-n2c(-c3ccccc3)nc3ccccc3c2=O)cc1` (configuration not stated), the EC50 (as a rule, the concentration at which the effect is half-maximal) was above 200 µM and the IC50 (in general, the concentration needed to halve the response being measured) was 11.2 µM.

`CC(C)=CC(=O)CC(=O)C(=O)Nc1ccc(Cl)c(Cl)c1`: the EC50 was above 417 µM and the IC50 is above 417 µM.

Take `S=c1sc2cscc2s1`: the EC50 was above 52.5 µM and the IC50 was 30.9 µM.

As to `COC(=O)CP(=O)(OCC(F)(F)F)OCC(F)(F)F`, the EC50 is above 794 µM and the IC50 was 437 µM.

For `NCCCCNCCCNC(=O)c1nc(-c2csc(CCN)n2)sc1Cl`, the EC50 is above 200 µM and the IC50 is above 200 µM.

Turning to `C=C1CC[C@@](C)(c2ccc(C)cc2)C1C` (some centres not stated), the result was inactive.

In the case of `CC(C)c1cc2c(O)c(c1)Cc1cc(C(C)C)cc(c1O)Cc1cc(C(C)C)cc(c1O)Cc1cc(C(C)C)cc(c1O)Cc1cc(C(C)C)cc(c1O)Cc1cc(C(C)C)cc(c1O)C2`, the EC50 is above 14.5 µM and the IC50 was above 14.5 µM.

Regarding `CC1=C(Br)C(c2ccccc2)=Nc2ccccc2N1`, the EC50 was above 200 µM and the IC50 was 33.1 µM.

With `O=S1Nc2c(Cl)cc(Cl)c3c(Cl)cc(Cl)c(c23)N1`, the outcome was inactive.

As to `C=C[C@]1(C)CC[C@]2(C)C(CC[C@@]3(C)C2C[C@H](O)[C@H](O)[C@@]3(C)O)C1` (some centres not stated), the EC50 was above 200 µM and the IC50 came out at 141 µM.

Regarding `COc1cc(N=Nc2cc(S(=O)(=O)O)cc3cc(S(=O)(=O)O)cc(O)c23)c(C)cc1N=Nc1c(S(=O)(=O)O)cc2cc(Nc3ccccc3)ccc2c1O`, the result was inactive.

With `Nc1ccc(S(=O)(=O)Cc2ccc(C(=O)O)cc2)cc1`, the EC50 is above 324 µM and the IC50 is above 324 µM.

For `CCOC(=O)N1[C@@H]2CCC[C@@H]2C(=O)[C@@H]2CCC[C@@H]21`, the EC50 was above 200 µM and the IC50 is above 200 µM.

In the case of `COc1ccc2c(c1)OC(=O)C(S(=O)(=O)c1ccccc1)C2` (configuration not stated), the EC50 was above 295 µM and the IC50 was above 295 µM.

`C/C(CC(O)(/C=N/O)c1ccccc1)=N/O` (configuration not stated): the EC50 was above 200 µM and the IC50 is above 200 µM.

Regarding `OC1CCC(C#CC#CC2CCC(O)CC2)CC1` (configuration not stated), the EC50 is above 100 µM and the IC50 is above 100 µM.

As for `CCc1n[nH]c(=O)n1-n1c(C)ccc1C`, the EC50 was above 200 µM and the IC50 was above 200 µM.

With `COc1c(Br)c(=O)n(C)c(=O)n1C`, the EC50 was above 200 µM and the IC50 was above 200 µM.

As for `CC1=C(C(=O)Nc2ccccc2C)C(/C=C/c2ccccc2)C(C(=O)Nc2ccccc2C)=C(C)N1`, the result was inactive.

Consider `OC(C/C=N/Nc1ccccc1)(C(F)(F)Cl)C(F)(F)Cl`, for which the EC50 was above 200 µM and the IC50 turned out to be 10 µM.

Take `O=C1NC(=S)NNC12c1ccccc1-c1ccccc12`: the EC50 is above 200 µM and the IC50 came to 33.9 µM.

Regarding `CCCCCn1c(=O)c2c(=O)[nH][nH]c2c2ccccc21`, the EC50 was above 200 µM and the IC50 is above 200 µM.

Regarding `CC(=O)O[C@H]1CC[C@H]2[C@@H]3CCC4C(C)=NNC(=O)C4[C@H]3CC[C@]12C` (some centres not stated), the EC50 was above 200 µM and the IC50 is above 200 µM.

`CCc1cccc(C(C)(C)C)c1NC(=S)NC=C(C#N)C#N`: the EC50 is above 200 µM and the half-inhibitory concentration (IC50) worked out at 145 µM.

Regarding `NC(=O)C(NN=C(c1ccccc1)c1ccccc1)c1ccccc1` (configuration not stated), the outcome was inactive.

As for `COc1ccc(-c2c(C3=NCCN3)nnn2-c2ccccc2)cc1`, the EC50 is above 295 µM and the half-maximal inhibitory concentration (IC50) was above 295 µM.

As for `O=C1CC(c2ccc[nH]2)=NN1c1ccccc1`, the EC50 is above 200 µM and the 50% inhibitory concentration (IC50) was 83.2 µM.

Regarding `O=[N+]([O-])c1ccc([I+]c2ccccc2)cc1`, the EC50 is above 200 µM and the IC50 came out at 2.57 µM.

As to `C1OCN2CSCC12` (configuration not stated), the EC50 was above 1910 µM and the IC50 came out at 110 µM.

Regarding `O=C1C(=O)c2ccccc2C(O)=C1CC=C(Cl)Cl`, the EC50 is above 126 µM and the IC50 is 0.955 µM.

`C#CC1(O)CCCCCCCCC2(CCCCCCCC1)OCCO2`: the EC50 is above 200 µM and the IC50 was 25.7 µM.

Regarding `OCC1CC2C=CCC(C2)C1` (configuration not stated), the outcome was inactive.

Consider `c1ccc(P(OCCCCOP(c2ccccc2)c2ccccc2)c2ccccc2)cc1`, for which the EC50 was above 200 µM and the IC50 turned out to be 85.1 µM.

Turning to `Cc1cc(C(=O)c2ccccc2)c2oc(-c3ccccc3)c(Cl)c(=O)c2c1`, the EC50 is above 47.9 µM and the IC50 was above 47.9 µM.

On to `Cc1c(S(=O)c2cc(C(C)(C)C)c(O)c(CN3CCCC3)c2C)cc(C(C)(C)C)c(O)c1CN1CCCC1`, for which the EC50 was above 200 µM and the IC50 turned out to be 13.5 µM.

For `CC(C)(C)[Si](C)(C)OC1C(/C=N\O)OC(n2cnc3c(N)ncnc32)C1O[Si](C)(C)C(C)(C)C` (configuration not stated), the EC50 was above 200 µM and the IC50 stood at 3.02 µM.

For `CC(C)=C[C@@H]1C[C@H](C)c2c(O)cc(C)c3c2C1=C(C)C(=O)C3=O`, the EC50 was above 200 µM and the IC50 was 22.4 µM.

`CCc1ccc2oc(-c3cc(O)c(-c4nc5cc(CC)ccc5o4)cc3O)nc2c1`: the EC50 was above 200 µM and the half-inhibitory concentration (IC50) was above 200 µM.

Take `CC1=CCCC2C(C=O)(C1)CC(C)C2(CO)CC/C(=C/CO)CO` (configuration not stated): the result was inactive.

For the compound `CN(C)C(=O)COc1ccc(Cl)cc1Cl`, the EC50 is above 200 µM and the IC50 is above 200 µM.

Consider `COc1ccc(S(=O)(=O)Cc2ccc(C(=O)O)cc2)cc1`, for which the EC50 is above 813 µM and the 50% inhibitory concentration (IC50) was above 813 µM.

For `N#CCCN(CCC#N)c1ccc(/C=C2\N=C(c3ccccc3)N(c3ccccc3)C2=O)cc1`, the EC50 is above 200 µM and the IC50 was determined as 7.76 µM.

With `CN(C)c1ccc(/C=C(\NC(=O)c2ccccc2)C(=O)NC(CCC(=O)O)C(=O)O)cc1` (configuration not stated), the EC50 is above 50.1 µM and the IC50 worked out at 34.7 µM.

Consider `COc1ccccc1CNCc1nc2ccccc2[nH]1`, for which the EC50 was above 200 µM and the IC50 came to 155 µM.

With `CCC(C)C(C1=C(O)c2ccccc2C(=O)C1=O)C1=C(O)c2ccccc2C(=O)C1=O` (configuration not stated), the EC50 is above 200 µM and the IC50 worked out at 87.1 µM.

For `CC1(C)CC(=O)C2=C(C1)NC(=S)C(C#N)C2c1ccccc1` (configuration not stated), the EC50 is above 85.1 µM and the IC50 worked out at 32.4 µM.

On to `O=C(NCCNCCCNC(=O)c1cc(-c2ccccc2)nc2ccccc12)c1cccc(OCc2ccccc2)c1OCc1ccccc1`, for which the EC50 is above 200 µM and the IC50 came to 1.1 µM.

`CCCCCCCCCCCCCCCCOC1OC(CSSCC2OC(OCCCCCCCCCCCCCCCC)C(O)C(O)C2O)C(O)C(O)C1O` (configuration not stated): the EC50 is 5.25 µM and the half-maximal inhibitory concentration (IC50) was found to be 6.03 µM.

Consider `CCCCCC=C(c1cc(Cl)c(OC)c(-c2nc(C)no2)c1)c1cc(Cl)c(OC)c(-c2nc(C)no2)c1`, for which the EC50 was above 200 µM and the IC50 came out at 10.2 µM.

On to `CC(=O)NC(N)=NC#N`, for which the EC50 was above 2000 µM and the half-inhibitory concentration (IC50) is above 2000 µM.

Take `CCOC(=O)C1C(=O)CN2CCc3c([nH]c4ccccc34)C12` (configuration not stated): the EC50 was above 29.5 µM and the IC50 was above 29.5 µM.

Consider `O=C1c2c(ccc3c2CCC3)CC12Cc1ccccc1C2`, for which the EC50 is above 200 µM and the IC50 was above 200 µM.

As to `CCCCCc1cc2cc(O)cc(Oc3c(O)cc(O)c(C(=O)O)c3CCCCC)c2c(=O)o1`, the EC50 is above 200 µM and the IC50 amounted to 34.7 µM.

Consider `O=[N+]([O-])c1ccc(S(=O)(=O)c2ccccc2)c([N+](=O)[O-])c1`, for which the outcome was inactive.

In the case of `Cn1cc(NC(=O)c2nc(NC(=O)c3nc(NC(=O)c4ccc(C(=O)Nc5cn(C)c(C(=O)Nc6cn(C)c(C(=O)Nc7cn(C)c(C(=O)NCCC(=N)N)n7)n6)n5)nc4)cn3C)cn2C)nc1C(=O)NCCC(=N)N`, the EC50 is above 50.1 µM and the IC50 amounted to 1.17 µM.

Turning to `CN(C)C=Nc1c(Br)cc(Br)c2nonc12`, the EC50 was above 200 µM and the IC50 is above 200 µM.

Consider `COc1cc(C2=C(C)[C@@H]3CN(CC=C3c3ccc(Cl)cc3)C2)c(S(=O)(=O)O)cc1OC`, for which the outcome was inactive.

Turning to `O=C(CCCCCCCCC(=O)NCC1(c2ccccc2)CCN(Cc2ccccc2)CC1)NCC1(c2ccccc2)CCN(Cc2ccccc2)CC1`, the EC50 is above 200 µM and the IC50 amounted to 102 µM.

Turning to `CC(=O)N1C(=O)CC(c2ccccc2)Sc2ccccc21` (configuration not stated), the EC50 was above 151 µM and the IC50 is above 151 µM.

With `Cc1cc(NS(=O)(=O)c2ccc(N=Nc3cc(S(=O)(=O)O)c4ccccc4c3O)cc2)ccc1N=Nc1ccc2cc(S(=O)(=O)O)cc(S(=O)(=O)O)c2c1`, the outcome was active.

For `COC1(c2ccccc2)OC(=O)c2ccccc21` (configuration not stated), the EC50 was above 200 µM and the IC50 amounted to 83.2 µM.

`O=S(=O)(O)c1cc(S(=O)(=O)O)c2c(N=Nc3ccc(N=Nc4ccccc4)cc3)c(O)ccc2c1`: the EC50 was above 100 µM and the IC50 is above 100 µM.

For the compound `OCCSCCCSCCO`, the EC50 was above 95.5 µM and the IC50 is 72.4 µM.

In the case of `CN1C(=O)C(O)(C2=C3OCOC3=CC(=O)C2=O)c2ccccc21` (configuration not stated), the EC50 is above 200 µM and the IC50 stood at 32.4 µM.

As to `CC1=C(C(=O)Nc2cc(F)c(F)cc2F)C(c2ccc([N+](=O)[O-])cc2)C(C(=O)Nc2cc(F)c(F)cc2F)=C(C)N1`, the EC50 is above 77.6 µM and the IC50 came to 72.4 µM.

With `COc1ccn(CC(C)=O)c(=O)n1`, the EC50 was above 200 µM and the IC50 was above 200 µM.

With `O=C(/C=C(\C(=O)c1cccs1)c1cccs1)c1ccc(C(=O)/C=C(\C(=O)c2cccs2)c2cccs2)cc1`, the EC50 was above 200 µM and the IC50 is above 200 µM.

`CCOC(=O)c1cn(C)c2c1C(O)=C(C(=O)OC)CC(=O)N2`: the EC50 is above 234 µM and the IC50 amounted to 178 µM.

Regarding `Nc1c(Br)cc2c(c1Br)Cc1cc(Br)ccc1-2`, the EC50 is above 200 µM and the concentration for half-maximal inhibition (IC50) is above 200 µM.

In the case of `CCC/C(Cl)=N\OC(=O)Nc1ccc(F)c([N+](=O)[O-])c1`, the EC50 is above 200 µM and the IC50 was 9.12 µM.

In the case of `O=C1/C(=C\c2cccc(Oc3ccccc3)c2)S(=O)(=O)C(c2ccccc2)N1c1cc(Cl)ccc1Cl` (configuration not stated), the EC50 is above 200 µM and the IC50 amounted to 3.31 µM.

(Values after PubChem BioAssay AID179 (DTP/NCI, 2004).)
